The source of these data is US8334382B2, “Substituted biaryl piperazinyl-pyridine analogues” (Neurogen Corporation, priority 2004, dated 2012).

This assay deals with T1, human capsaicin receptor (Homo sapiens, UniProt Q8NER1).
T1 construct: expressed in transfected cells; host or cells: HEK293, stably transfected with pBK-CMV construct
Nature of the assay: Calcium mobilization assay, determination of antagonist activity. Format: cell-based. The conditions noted are these: capsaicin at EC50; cells expressing human capsaicin receptor; Example 6. Put shortly: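 IC50 is the antagonist level giving a 50% drop in the capsaicin (EC50) calcium signal, read by FLIPR in Fluo-3 AM-loaded stable HEK293 lines bearing full-length human receptor. Compounds at 1-5 µM final were preincubated 0.5-6 h, room temperature, dark, in KRH pH 7.4.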
Background: Calcium flux is commonly read through the fluorescence of an indicator in the cells.

pIC50: −log10 of the molar value.

T1 sequence (Q8NER1 whole entry): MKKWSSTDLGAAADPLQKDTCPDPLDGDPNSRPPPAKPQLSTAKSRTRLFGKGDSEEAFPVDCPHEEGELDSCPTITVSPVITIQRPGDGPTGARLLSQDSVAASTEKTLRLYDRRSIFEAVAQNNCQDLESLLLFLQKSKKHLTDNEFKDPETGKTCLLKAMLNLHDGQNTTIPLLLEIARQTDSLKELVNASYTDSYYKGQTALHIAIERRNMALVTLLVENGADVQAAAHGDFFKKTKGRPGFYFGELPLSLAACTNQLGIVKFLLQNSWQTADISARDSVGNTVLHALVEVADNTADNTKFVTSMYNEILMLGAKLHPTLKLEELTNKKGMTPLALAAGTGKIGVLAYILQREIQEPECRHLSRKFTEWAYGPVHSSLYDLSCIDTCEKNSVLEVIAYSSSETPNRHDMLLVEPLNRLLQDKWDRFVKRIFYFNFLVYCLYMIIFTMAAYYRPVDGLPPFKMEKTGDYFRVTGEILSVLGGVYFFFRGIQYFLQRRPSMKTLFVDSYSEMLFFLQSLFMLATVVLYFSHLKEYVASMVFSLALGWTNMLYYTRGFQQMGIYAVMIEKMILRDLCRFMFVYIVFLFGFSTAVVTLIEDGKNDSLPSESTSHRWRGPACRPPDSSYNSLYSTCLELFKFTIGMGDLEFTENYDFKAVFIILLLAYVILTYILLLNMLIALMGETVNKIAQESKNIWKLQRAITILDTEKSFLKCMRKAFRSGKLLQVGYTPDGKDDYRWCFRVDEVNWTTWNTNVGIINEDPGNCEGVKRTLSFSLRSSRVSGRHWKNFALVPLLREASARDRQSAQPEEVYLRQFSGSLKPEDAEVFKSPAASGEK

`CC(C)N(C)c1nc(-c2ccc(F)cc2)cc(N2CCN(c3ncc(C(=O)O)cc3Cl)C[C@H]2C)n1` [Example 157, 5-Chloro-6-{4-[6-(4-fluoro-phenyl)-2-(isopropyl-methyl-amino)-pyrimidin-4-yl]-3-(R)-methyl-piperazin-1-yl}-nicotinic acid]: the pIC50 (in general, the IC50 on a negative log10 scale, so that one unit is a factor of ten) is at least 6.00.
Then `CC1CCCN1c1nc(-c2ccc(F)c(Cl)c2)cc(N2CCN(c3ncc(C(=O)O)cc3Cl)CC2)n1` (stereo not shown) [Example 21, 5-Chloro-6-{4-[6-(3-chloro-4-fluoro-phenyl)-2-(2-methyl-pyrrolidin-1-yl)-pyrimidin-4-yl]-piperazin-1-yl}-nicotinic acid], with at least 6.00.
Then `C[C@@H]1CN(c2ncc(/C=C/CO)cc2Cl)CCN1c1cc(-c2ccc(F)c(Cl)c2)nc(N2CCC[C@H]2C)n1` (relative stereo) [Example 191, rel-(2E)-3-{5-chloro-6-[(3R)-4-{6-(3-chloro-4-fluorophenyl)-2-[(2R)-2-methylpyrrolidin-1-yl]pyrimidin-4-yl}-3-methylpiperazin-1-yl]pyridin-3-yl}prop-2-en-1-ol], with at least 6.00; and `CCOC(=O)c1cnc(N2CCN(c3cc(-c4ccccc4)nc(N4CCCC4C)n3)[C@H](C)C2)c(C)c1` (stereo partly drawn) [Example 58, 5-Methyl-6-{3-(R)-methyl-4-[2-(2-methyl-pyrrolidin-1-yl)-6-phenyl-pyrimidin-4-yl]-piperazin-1-yl}-nicotinic acid ethyl ester], with at least 6.00.
Take `Cc1cc(C(=O)O)cnc1N1CCN(c2cc(-c3ccc(F)cc3)nc(N3CCC[C@H]3CO)n2)[C@H](C)C1` [Example 151, 6-{4-[6-(4-Fluoro-phenyl)-2-(2-(S)-hydroxymethyl-pyrrolidin-l-yl)-pyrimidin-4-yl]-3-(R)-methyl-piperazin-1-yl}-5-methyl-nicotinic acid]: the pIC50 was at least 6.00.
As for `Cc1cc(C(=O)N2CCC(c3ccccc3)CC2)cnc1N1CCN(c2cc(-c3ccc(F)cc3)nc(N3CCCC3C)n2)CC1` (stereo not shown) [Example 130, 4-(4-fluorophenyl)-6-(4-{3-methyl-5-[(4-phenylpiperidin-1-yl)carbonyl]pyridin-2-yl}piperazin-1-yl)-2-(2-methylpyrrolidin-1-yl)pyrimidine], the figure is at least 6.00; as for `C[C@@H]1COCCN1c1nc(-c2ccc(F)cc2)cc(N2CCN(c3ncc(C(=O)O)cc3Cl)CC2)n1` [Example 159, 5-Chloro-6-{4-[6-(4-fluoro-phenyl)-2-(3-(R)-methyl-morpholin-4-yl)-pyrimidin-4-yl]-piperazin-1-yl}-nicotinic acid], at least 6.00.
`Cc1cc(C(N)=O)cnc1N1CCN(c2cc(-c3ccc(F)cc3)nc(N3CCCC3C)n2)[C@H](C)C1` (stereo partly drawn) [Example 44, 6-{4-[6-(4-Fluoro-phenyl)-2-(2-methyl-pyrrolidin-1-yl)-pyrimidin-4-yl]-3-(R)-methyl-piperazin-1-yl}-5-methyl-nicotinamide]: the negative logarithm of the IC50 (pIC50) was at least 6.00.
As for `C[C@@H]1CN(c2ncc(OCCO)cc2Cl)CCN1c1cc(-c2ccc(F)c(Cl)c2)nc(N2CCC[C@H]2C)n1` [Example 183, 2-{[5-chloro-6-((3R)-4-{6-(3-chloro-4-fluorophenyl)-2-[(2R)-2-methylpyrrolidin-1-yl]pyrimidin-4-yl}-3-methylpiperazin-1-yl)pyridin-3-yl]oxy}ethanol], the figure is at least 6.00; as for `CC1CCCN1c1nc(-c2ccc(F)c(Cl)c2)cc(N2CCN(c3ncc(CN)cc3Cl)CC2)n1` (stereo not drawn) [Example 12, C-(5-Chloro-6-{4-[6-(3-chloro-4-fluoro-phenyl)-2-(2-methyl-pyrrolidin-l-yl)-pyrimidin-4-yl]-piperazin-1-yl}-pyridin-3-yl)-methylamine], at least 6.00.
Consider `CCOC(=O)c1cnc(N2CCN(c3cc(-c4ccc(F)c(Cl)c4)nc(N4CCC[C@H]4C)n3)C[C@H]2C)c(Cl)c1` [Example 174, 5-Chloro-6-{4-[6-(3-chloro-4-fluoro-phenyl)-2-(2-(R)-methyl-pyrrolidin-1-yl)-pyrimidin-4-yl]-2-(R)-methyl-piperazin-1-yl}-nicotinic acid ethyl ester], for which the pIC50 is at least 6.00.
As for `CCOCCNC(=O)c1cnc(N2CCN(c3cc(-c4ccc(F)cc4)nc(N4CCCC4C)n3)CC2)c(C)c1` (stereo not shown) [Example 119, N-(2-ethoxyethyl)-6-{4-[6-(4-fluorophenyl)-2-(2-methylpyrrolidin-1-yl)pyrimidin-4-yl]piperazin-1-yl}-5-methylnicotinamide], the figure is at least 6.00.
On to `Cc1cc(C(=O)O)cnc1N1CCN(c2cc(-c3ccncc3)nc(N3CCCC3C)n2)CC1` (stereo not shown) [Example 77, 5-Methyl-6-{4-[2-(2-methyl-pyrrolidin-1-yl)-6-pyridin-4-yl-pyrimidin-4-yl]-piperazin-1-yl}-nicotinic acid], for which the negative logarithm of the IC50 (pIC50) was at least 6.00.
As for `Cc1cc(C(=O)N2CCCCCC2)cnc1N1CCN(c2cc(-c3ccc(F)cc3)nc(N3CCCC3C)n2)CC1` (stereo not drawn) [Example 126, l-[(6-{4-[6-(4-fluorophenyl)-2-(2-methylpyrrolidin-1-yl)pyrimidin-4-yl]piperazin-1-yl}-5-methylpyridin-3-yl)carbonyl]azepane], the figure is at least 6.00.
As to `C[C@@H]1CN(c2ncc(C(=O)NCCO)cc2Cl)CCN1c1cc(-c2ccccc2)nc(N2CCC[C@H]2C)n1` [Example 167, 5-Chloro-N-(2-hydroxy-ethyl)-6-{3-(R)-methyl-4-[2-(2-(R)-methyl-pyrrolidin-1-yl)-6-phenyl-pyrimidin-4-yl]-piperazin-1-yl}-nicotinamide], the negative logarithm of the IC50 (pIC50) is at least 6.00.
As for `CCOC(=O)c1cnc(N2CCN(c3cc(-c4ccc(F)cc4)nc(N4CCCC4)n3)[C@H](C)C2)c(Cl)c1` [Example 28, 5-Chloro-6-{4-[6-(4-fluoro-phenyl)-2-pyrrolidin-1-yl-pyrimidin-4-yl]-3-(R)-methyl-piperazin-1-yl}-nicotinic acid ethyl ester], the figure is at least 6.00; as for `Cc1cc(C(=O)O)cnc1N1CCN(c2cc(-c3cncc(Cl)c3)nc(N3CCC[C@H]3C)c2)[C@H](C)C1` [Example 180, 6-{4-[5′-Chloro-6-(2-(R)-methyl-pyrrolidin-1-yl)-[2,3′]bipyridinyl-4-yl]-3-(R)-methyl-piperazin-1-yl}-5-methyl-nicotinic acid], at least 6.00; as for `Cc1cc(CO)cnc1N1CCN(c2cc(-c3ccc(F)cc3)nc(N3CCCC3C)n2)CC1` (stereo not shown) [Example 38, (6-{4-[6-(4-Fluoro-phenyl)-2-(2-methyl-pyrrolidin-1-yl)-pyrimidin-4-yl]-piperazin-1-yl}-5-methyl-pyridin-3-yl)-methanol], at least 6.00.
As for `C[C@@H]1CCCN1c1nc(-c2ccc(F)cc2)cc(N2CCN(c3ncc(CC(=O)O)cc3Cl)CC2)n1` [Example 93, (5-Chloro-6-{4-[6-(4-fluoro-phenyl)-2-(2-(R)-methyl-pyrrolidin-1-yl)-pyrimidin-4-yl]-piperazin-1-yl}-pyridin-3-yl)-acetic acid], the figure is at least 6.00.
Then `NC(=O)c1cccnc1N1CCN(c2cc(-c3ccc(F)c(Cl)c3)nc(N3CCOCC3)n2)CC1` [Example 2, 2-{4-[6-(3-Chloro-4-fluoro-phenyl)-2-morpholin-4-yl-pyrimidin-4-yl]-piperazin-l-yl}-nicotinamide], with at least 6.00; and `Cc1cc(C(=O)NC2CCCC2)cnc1N1CCN(c2cc(-c3ccc(F)cc3)nc(N3CCCC3C)n2)CC1` (stereo not shown) [Example 108, N-Cyclopentyl-6-{4-[6-(4-fluoro-phenyl)-2-(2-methyl-pyrrolidin-1-yl)-pyrimidin-4-yl]-piperazin-1-yl}-5-methyl-nicotinamide], with at least 6.00; and `Cc1cc(C(N)=O)cnc1N1CCN(c2cc(-c3ccccc3)nc(N3CCCC3C)n2)[C@H](C)C1` (stereo partly drawn) [Example 82, 5-Methyl-6-{3-(R)-methyl-4-[2-(2-methyl-pyrrolidin-1-yl)-6-phenyl-pyrimidin-4-yl]-piperazin-1-yl}-nicotinamide], with at least 6.00.
For `CCOC(=O)c1cnc(N2CCN(c3cc(-c4ccc(F)cc4)nc(N(C)C)n3)[C@H](C)C2)c(C)c1` [Example 62, 6-{4-[2-Dimethylamino-6-(4-fluoro-phenyl)-pyrimidin-4-yl]-3-(R)-methyl-piperazin-1-yl}-5-methyl-nicotinic acid ethyl ester], the pIC50 is at least 6.00.
Take `CCOC(=O)c1cnc(N2CCN(c3cc(-c4cncc(Cl)c4)nc(N4CCCC4C)n3)[C@H](C)C2)c(Cl)c1` (stereo partly drawn) [Example 42, 5-Chloro-6-{4-[6-(5-chloro-pyridin-3-yl)-2-(2-methyl-pyrrolidin-1-yl)-pyrimidin-4-yl]-3-(R)-methyl-piperazin-1-yl}-nicotinic acid ethyl ester]: the pIC50 was at least 6.00.
As for `Cc1cc(CCO)cnc1N1CCN(c2cc(-c3ccc(F)cc3)nc(N3CCC[C@H]3C)n2)[C@H](C)C1` [Example 181, 2-[6-((3R)-4-{6-(4-fluorophenyl)-2-[(2R)-2-methyl-1-pyrrolidinyl]-4-pyrimidinyl}-3-methyl-1-piperazinyl)-5-methyl-3-pyridinyl]ethanol], the figure is at least 6.00.
As for `Cc1cc(C(=O)O)cnc1N1CCN(c2cc(-c3ccc(F)cc3)nc(N3CCC[C@@H]3C)n2)[C@H](C)C1` [Example 99, 6-{4-[6-(4-Fluoro-phenyl)-2-(2-(S)-methyl-pyrrolidin-1-yl)-pyrimidin-4-yl]-3-(R)-methyl-piperazin-1-yl}-5-methyl-nicotinic acid], the figure is at least 6.00.
Then `Cc1cc(CO)cnc1N1CCN(c2cc(-c3ccncc3)nc(N3CCCC3C)n2)CC1` (stereo not shown) [Example 73, (5-Methyl-6-{4-[2-(2-methyl-pyrrolidin-1-yl)-6-pyridin-4-yl-pyrimidin-4-yl]-piperazin-1-yl}-pyridin-3-yl)-methanol], with at least 6.00.
On to `Cc1cccc(-c2cc(N3CCN(c4ncc(C(=O)O)cc4C)CC3)nc(N3CCCC3C)n2)c1` (stereo not shown) [Example 76, 5-Methyl-6-{4-[2-(2-methyl-pyrrolidin-1-yl)-6-m-tolyl-pyrimidin-4-yl]-piperazin-1-yl}-nicotinic acid], for which the negative-log IC50 (pIC50) is at least 6.00.
